Here are results for 16 molecules from publication PMC3226492, “Isomer Profiles of Perfluorochemicals in Matched Maternal, Cord, and House Dust Samples: Manufacturing Sources and Transplacental Transfer” (Environmental Health Perspectives, 2011).

Like-named read-outs stand apart in the source and are kept apart here.

Series [1] can be described thus: Transplacental transfer efficiency (TTE): cord serum at delivery divided by maternal serum concentration, present study. Format: in vivo, human. As to conditions: for TTE calculated from cord:maternal serum concentrations, arithmetic mean / TTE calculated from cord:maternal serum concentrations, maximum / TTE calculated from cord:maternal serum concentrations, median / TTE calculated from cord:maternal serum concentrations, minimum: cord serum at delivery / maternal serum at 15 weeks of gestation; for Mean cord:maternal serum concentration: Present study.

The nature of series [2]: Total PFC concentrations in maternal and cord sera by HPLC-MS/MS. Format: in vivo, human. The note with it: for mean concentration in cord serum: cord serum at delivery. On the procedure:
Blood collection. Samples (n = 20) analyzed in this study are a subset of the Chemicals, Health and Pregnancy (CHirP) cohort recruited in 2007–2008 in Vancouver (BC, Canada) ([Webster et al. 2011]). All participants provided informed consent. Laboratory personnel collected blood samples from pregnant volunteers in Vancouver at 15 weeks of gestation, and samples of cord blood (n = 20) were collected at delivery. After serum separation, all samples were stored at –80°C. Ethical clearance was obtained from the research ethics boards of the University of British Columbia, the University of Alberta, Health Canada, and the three participating hospitals.
Serum preparation. The method of [Kuklenyik et al. (2004)] was adapted for the extraction of PFCs from serum using a Rapid Trace system (Caliper Life Sciences, Hopkinton, MA, USA). The solid-phase extraction cartridge (Oasis-HLB, Waters, Milford, MA, USA; 60 mg/3 mL) was conditioned with 2 mL methanol followed by 2 mL of 0.1 M formic acid. Serum was prepared for extraction by mixing 3 mL of 0.1 M formic acid with 1.0 mL serum. After the addition of mass-labeled internal standards (10 ng each), the mixture was vortexed and sonicated for 20 min. Prepared serum was added to the column and washed successively with 3 mL of 0.1 M formic acid, 6 mL of 50% 0.1 M formic acid/50% methanol, and 1 mL of 1% ammonium hydroxide. The cartridge was drained by vacuum, and PFCs were eluted with 1.0 mL of 1% ammonium hydroxide in acetonitrile. The eluate was concentrated to 100 μL followed by the addition of 200 μL of 90% 20 mM acetic acid in 10% methanol. Method blanks containing calf serum, a calf serum sample spiked at 0.5 ng/mL of each PFC, and a human serum sample spiked at 10 ng/mL were analyzed with the study samples.
Total PFC analysis. For total PFC concentrations, separation was by HPLC on a 150-mm Synergi Hydro-RP C-18 column (Phenomenex, Torrance, CA, USA). Gradient elution at 600 μL/min used A [20 mM ammonium acetate (pH 4) in water] and B (methanol) mobile phases. Initial conditions were 60% A for 1 min, ramped to 20% A by 3 min, a 5-min hold, an increase to 100% B by 8.5 min, and a hold until 14 min, at which time initial conditions were reestablished. MS/MS data were collected on an Applied Biosystems API 3000 mass spectrometer (Applied Biosystems, Carlsbad, CA, USA) using electrospray ionization in negative-ion mode [for mean recoveries of total PFCs in serum and dust, see Supplemental Material, Table 1 (http://dx.doi.org/10.1289/ehp.1003265)].

The conditions of series [3]: cited from earlier work.
Where [4] appears, read: maternal serum, 15 weeks of gestation.

With `O=C(O)C(F)(F)C(F)(F)C(F)(F)C(F)(F)C(F)(C(F)(F)F)C(F)(F)F` [Iso-PFOA], in series [1], the “TTE calculated from cord:maternal serum concentrations, arithmetic mean” value (“TTE calculated … arithmetic mean” below) was 0.84; the “TTE calculated from cord:maternal serum concentrations, maximum” value (from here on “TTE calculated … maximum”) is 2.56; the “TTE calculated from cord:maternal serum concentrations, median” value (shortened to “TTE calculated … median”) was 0.67; the “TTE calculated from cord:maternal serum concentrations, minimum” value (shortened to “TTE calculated … minimum”) is listed as 0.16.

Consider `O=C(O)C(F)(F)C(F)(F)C(F)(F)C(F)(C(F)(F)F)C(F)(F)C(F)(F)F` (centres unmarked) [5m-PFOA], for which, in series [1], the “TTE calculated … arithmetic mean” value is on record as 0.86; the “TTE calculated … maximum” value was 2.26; the “TTE calculated … median” value is on record as 0.54; the “TTE calculated … minimum” value is on record as 0.09. For the same molecule, the “TTE calculated … maximum” value in series [1] (listed as 5m-PFOA) is above 1.0.

For `O=C(O)C(F)(F)C(F)(F)C(F)(F)C(F)(F)C(F)(F)C(F)(F)C(F)(F)C(F)(F)C(F)(F)F` [Total PFDA, perfluorodecanoate], in series [1], the “TTE calculated … arithmetic mean” value is reported as 0.34; the “TTE calculated … maximum” value is 1.10; the “TTE calculated … median” value is 0.23; the “TTE calculated … minimum” value is reported as 0.00. Also, the “mean concentration in cord serum” value in series [2] is given as 0.1 ng/mL. Moreover, the “mean concentration in maternal serum” value in series [2] (setting [4]) is 0.4 ng/mL.

`O=S(=O)(O)C(F)(C(F)(F)F)C(F)(F)C(F)(F)C(F)(F)C(F)(F)C(F)(F)C(F)(F)F` (centres unmarked) [1m-PFOS]: in series [1], the “TTE calculated … arithmetic mean” value is listed as 0.87; the “TTE calculated … maximum” value is on record as 1.24; the “TTE calculated … median” value was 0.88; the “TTE calculated … minimum” value is listed as 0.36.

With `O=C(O)C(F)(F)C(F)(C(F)(F)F)C(F)(F)C(F)(F)C(F)(F)C(F)(F)F` (centres unmarked) [3m-PFOA], in series [1], the “TTE calculated … arithmetic mean” value was 0.76; the “TTE calculated … median” value was 0.68; the “TTE calculated … minimum” value was 0.07.

With `O=S(=O)(O)C(F)(F)C(F)(F)C(F)(F)C(F)(F)C(F)(F)C(F)(C(F)(F)F)C(F)(F)F` [Iso- PFOS], in series [1], the “TTE calculated … arithmetic mean” value is 0.36; the “TTE calculated … maximum” value is recorded as 0.60; the “TTE calculated … median” value is 0.34; the “TTE calculated … minimum” value is given as 0.09.

Turning to `O=C(O)C(F)(F)C(F)(F)C(F)(F)C(F)(F)C(F)(F)C(F)(F)C(F)(F)F` [n-PFOA], in series [1], the “TTE calculated … arithmetic mean” value is 0.62; the “TTE calculated … maximum” value was 1.00; the “TTE calculated … median” value was 0.61; the “TTE calculated … minimum” value was 0.26.

Regarding `O=C(O)C(F)(F)C(F)(F)C(F)(C(F)(F)F)C(F)(F)C(F)(F)C(F)(F)F` (centres unmarked) [4m-PFOA], in series [1], the “TTE calculated … arithmetic mean” value is on record as 0.64; the “TTE calculated … maximum” value is 1.29; the “TTE calculated … median” value is given as 0.68; the “TTE calculated … minimum” value is given as 0.09. The “TTE calculated … maximum” value in series [1] (listed as 4m-PFOA) is reported as above 1.0.

Take `O=C(O)C(F)(F)C(F)(F)C(F)(F)C(F)(F)C(F)(F)C(F)(F)C(F)(F)F` [Total PFOA, perfluorooctanoate]: the “Mean cord:maternal serum concentration” value in series [1] (Canada, 2007, n 20, maternal serum sampled in the second trimester) was 0.61; in series [1] (TTE adjusted from 15 weeks to time of delivery (~ 40 weeks) using data from Monroy et al. (2008)), 0.71; in series [3] (Canada, 2004–2005, n 101, ref Monroy et al. 2008), 0.81; in series [3] (Denmark, 1996–2002, n 50, maternal serum sampled in the first trimester, ref Fei et al. 2007), 0.55; in series [3] (Denmark, 1996–2002, n 50, maternal serum sampled in the second trimester, ref Fei et al. 2007), 0.68; in series [3] (Faroe Islands, 2000, n 12, ref Needham et al. 2011), 0.72. For the same molecule, the “Mean cord:maternal serum concentration” value in series [3] (Germany, 2003, n 11, ref Midasch et al. 2007) was 1.26; in series [3] (Germany, 2007–2009, n 27, ref Fromme et al. 2010) it was 0.70; in series [3] (Korea, 2007, n 20, ref Kim et al. 2011), 0.69; in series [3] (South Africa, 2005–2006, n 58, ref Hanssen et al. 2010), 0.71. For the same molecule, in series [1], the “TTE calculated … arithmetic mean” value is given as 0.61. In series [1], the “TTE calculated … maximum” value is recorded as 0.96. Besides, in series [1], the “TTE calculated … median” value is 0.63. Moreover, in series [1], the “TTE calculated … minimum” value is given as 0.32. In addition, the “mean concentration in cord serum” value in series [2] worked out at 1.1 ng/mL. The “mean concentration in maternal serum” value in series [2] (setting [4]) is reported as 1.8 ng/mL.

As for `O=C(O)C(F)(F)C(F)(F)C(F)(F)C(F)(F)C(F)(F)C(F)(F)C(F)(F)C(F)(F)F` [Total PFNA, perfluorononanoate], in series [1], the “TTE calculated … arithmetic mean” value is recorded as 0.41; the “TTE calculated … maximum” value was 0.78; the “TTE calculated … median” value is listed as 0.38; the “TTE calculated … minimum” value is 0.13. In addition, the “mean concentration in cord serum” value in series [2] turned out to be 0.4 ng/mL. In series [2] (setting [4]), the “mean concentration in maternal serum” value was 0.9 ng/mL.

As for `O=S(=O)(O)C(F)(F)C(F)(F)C(F)(F)C(F)(F)C(F)(F)C(F)(F)C(F)(F)C(F)(F)F` [n-PFOS, linear perfluorooctane sulfonate], in series [1], the “TTE calculated … arithmetic mean” value is listed as 0.33; the “TTE calculated … maximum” value was 0.58; the “TTE calculated … median” value is 0.30; the “TTE calculated … minimum” value is 0.10.

With `O=S(=O)(O)C(F)(F)C(F)(F)C(F)(F)C(F)(C(F)(F)F)C(F)(F)C(F)(F)C(F)(F)F` (centres unmarked) [4m-PFOS], in series [1], the “TTE calculated … arithmetic mean” value was 0.55; the “TTE calculated … maximum” value is reported as 0.85; the “TTE calculated … median” value was 0.52; the “TTE calculated … minimum” value is 0.20.

In the case of `O=S(=O)(O)C(F)(F)C(F)(F)C(F)(F)C(F)(F)C(F)(C(F)(F)F)C(F)(F)C(F)(F)F` (centres unmarked) [5m-PFOS], in series [1], the “TTE calculated … arithmetic mean” value is 0.53; the “TTE calculated … maximum” value is on record as 0.93; the “TTE calculated … median” value is given as 0.52; the “TTE calculated … minimum” value was 0.25.

Consider `O=C(O)C(F)(F)C(F)(F)C(F)(F)C(C(F)(F)F)(C(F)(F)F)C(F)(F)F` [tb-PFOA], for which, in series [1], the “TTE calculated … arithmetic mean” value is given as 0.25; the “TTE calculated … maximum” value is given as 0.48; the “TTE calculated … median” value is on record as 0.25; the “TTE calculated … minimum” value was 0.02.

On to `O=S(=O)(O)C(F)(F)C(F)(F)C(F)(F)C(F)(F)C(F)(F)C(F)(F)F` [Total PFHxS, perfluorohexane sulfonate], for which, in series [1], the “TTE calculated … arithmetic mean” value is on record as 0.41; the “TTE calculated … maximum” value was 0.56; the “TTE calculated … median” value was 0.38; the “TTE calculated … minimum” value is 0.29. Moreover, the “mean concentration in cord serum” value in series [2] amounted to 0.7 ng/mL. Further, in series [2] (female, human, maternal serum, 15 weeks of gestation), the concentration at 15 weeks of gestation was 1.7 ng/mL.

For `O=S(=O)(O)C(F)(F)C(F)(F)C(F)(C(F)(F)F)C(F)(F)C(F)(F)C(F)(F)C(F)(F)F` (centres unmarked) [3m-PFOS], in series [1], the “TTE calculated … arithmetic mean” value is 0.67; the “TTE calculated … maximum” value is 1.12; the “TTE calculated … median” value is given as 0.68; the “TTE calculated … minimum” value was 0.21.
